From ChEMBL document CHEMBL2385000, “Design, synthesis and biological evaluation of indeno[1,2-d]thiazole derivatives as potent histone deacetylase inhibitors” (Bioorg Med Chem Lett, 2013)

Columns and labels:
[1] = biological target: T1, Histone deacetylase (Homo sapiens) (UniProt Q13547+O15379+Q9UBN7+Q92769+Q9UQL6+Q8WUI4+Q9BY41+Q96DB2+P56524+Q9UKV0+Q969S8); conditions: HeLa, at 10 µM
Description: Inhibition of HDAC in human HeLa cells using Fluor de Lys as substrate at 10 uM by fluorescence assay

[2] = biological target: T1, Histone deacetylase (Homo sapiens); conditions: HeLa, at 1 µM
Description: Inhibition of HDAC in human HeLa cells using Fluor de Lys as substrate at 1 uM by fluorescence assay

[3] = test system: HCT-116; assay: Cytotoxicity against human HCT116 cells after 48 hrs by Sulforhodamine B assay; assay type: functional
[4] = test system: MCF7; assay: Cytotoxicity against human MCF7 cells after 48 hrs by Sulforhodamine B assay; assay type: functional
[5] = biological target: Histone deacetylase; assay: Inhibition of HDAC in human HeLa cells using Fluor de Lys as substrate by fluorescence assay; assay type: cell-based

inhibition [1] [%]	inhibition [2] [%]	IC50 [5] [µM]	SMILES	GI50 ([3]; Homo sapiens, HCT-116, 48 h) [µM]	GI50 ([4]; Homo sapiens, MCF7, 48 h) [µM]	GI50 [3] [µM]	GI50 [4] [µM]
90	28.1	–	Cc1cc(C)c(Nc2nc3c(s2)Cc2cc(/C=C/C(=O)NO)ccc2-3)c(C)c1	–	–	–	–
95.5	45.1	–	COc1ccc(Nc2nc3c(s2)Cc2cc(/C=C/C(=O)NO)ccc2-3)cc1	–	–	–	–
93.9	10.2	–	O=C(/C=C/c1ccc2c(c1)Cc1sc(Nc3ccncc3)nc1-2)NO	–	–	–	–
77.7	25.5	–	O=C(/C=C/c1ccc2c(c1)Cc1sc(Nc3ccccn3)nc1-2)NO	–	–	–	–
96.5	62	0.298	O=C(/C=C/c1ccc2c(c1)Cc1sc(Nc3cccnc3)nc1-2)NO	2.43	1.58	–	–
97.5	61.3	0.214	CC(C)Nc1nc2c(s1)Cc1cc(/C=C/C(=O)NO)ccc1-2	2.1	1.21	–	–
95.3	35.8	–	O=C(/C=C/c1ccc2c(c1)Cc1sc(Nc3ccc(Cl)cc3)nc1-2)NO	–	–	–	–
97	71.7	0.157	CN(C)c1nc2c(s1)Cc1cc(/C=C/C(=O)NO)ccc1-2	1.61	1.26	–	–

Further lines, the compound ahead of its results:

SMILES	inhibition [1] [%]	inhibition [2] [%]	IC50 [5] [µM]	GI50 ([3]; Homo sapiens, HCT-116, 48 h) [µM]	GI50 ([4]; Homo sapiens, MCF7, 48 h) [µM]	GI50 [3] [µM]	GI50 [4] [µM]
CCCNc1nc2c(s1)Cc1cc(/C=C/C(=O)NO)ccc1-2	93.3	52.7	–	–	–	–	–
CNc1nc2c(s1)Cc1cc(/C=C/C(=O)NO)ccc1-2	–	–	–	1.86	1.39	–	–
O=C(/C=C/c1ccc2c(c1)Cc1sc(Nc3ccc(F)cc3F)nc1-2)NO	92.3	21.6	–	–	–	–	–
CC(C)(C)Nc1nc2c(s1)Cc1cc(/C=C/C(=O)NO)ccc1-2	95.3	39.8	–	–	–	–	–
Cc1ccc(Nc2nc3c(s2)Cc2cc(/C=C/C(=O)NO)ccc2-3)cc1	95.9	7.71	–	–	–	–	–
COc1ccc(CNc2nc3c(s2)Cc2cc(/C=C/C(=O)NO)ccc2-3)cc1	86.2	10.7	–	–	–	–	–
O=C(/C=C/c1ccc2c(c1)Cc1sc(NC3CCCCC3)nc1-2)NO	93.6	24.8	–	–	–	–	–
O=C(/C=C/c1ccc2c(c1)Cc1sc(NCCN3CCOCC3)nc1-2)NO	97.2	66.9	0.164	1.32	2.06	–	–
O=C(/C=C/c1ccc2c(c1)Cc1sc(Nc3cccc(C(F)(F)F)c3)nc1-2)NO	86.3	22.9	–	–	–	–	–
O=C(/C=C/c1ccc2c(c1)Cc1sc(Nc3ccccc3)nc1-2)NO	95.3	20.7	–	–	–	–	–
COCCNc1nc2c(s1)Cc1cc(/C=C/C(=O)NO)ccc1-2	97.4	71.6	0.14	0.535	0.869	–	–
O=C(CCCCCCC(=O)Nc1ccccc1)NO [VORINOSTAT]	–	–	–	–	–	0.878	0.689
